Assay results: the NIST ThermoML archive (doi:10.1021/je400214b)
Numbers after ± are expanded uncertainties.

How the values were obtained:
[1] = Liquid; for mass density: 293.15 K, 101.33 kPa, Vibrating tube method; for vapor or sublimation pressure: Ebulliometric method (Recirculating still)
[2] = refractive index (Na D-line) (dimensionless); details: 293.15 K; 101.33 kPa; Liquid; Standard Abbe refractometry

vapor or sublimation pressure ([1]; 351.15 K) [kPa] | vapor or sublimation pressure ([1]; 449.15 K) [kPa] | SMILES | mass density [1] [kg/m3] | vapor or sublimation pressure ([1]; 483.15 K) [kPa] | refractive index [2] | vapor or sublimation pressure ([1]; 350.15 K) [kPa]
 |  | O=[N+]([O-])c1ccccc1 [nitrobenzene] | 1198.8 ± 0.2 | 96.5 ± 9.7 | 1.5529 ± 0.0007 | 
96.5 ± 9.7 |  | CCO [ethanol] | 788.9 ± 0.2 |  | 1.361 ± 0.0007 | 
 |  | C=CC#N [acrylonitrile] | 806 ± 0.2 |  | 1.3909 ± 0.0007 | 96.5 ± 9.7
 | 96.5 ± 9.7 | CCCCCCCO [heptan-1-ol] |  |  |  | 
